Reference: BindingDB's records for doi:10.1021/jm8001026 (University of Texas At Dallas, 2008)

Target: T1, Dihydroorotate dehydrogenase (quinone), mitochondrial (Plasmodium falciparum (isolate 3D7), UniProt Q08210)
T1 sequence (Q08210 whole entry): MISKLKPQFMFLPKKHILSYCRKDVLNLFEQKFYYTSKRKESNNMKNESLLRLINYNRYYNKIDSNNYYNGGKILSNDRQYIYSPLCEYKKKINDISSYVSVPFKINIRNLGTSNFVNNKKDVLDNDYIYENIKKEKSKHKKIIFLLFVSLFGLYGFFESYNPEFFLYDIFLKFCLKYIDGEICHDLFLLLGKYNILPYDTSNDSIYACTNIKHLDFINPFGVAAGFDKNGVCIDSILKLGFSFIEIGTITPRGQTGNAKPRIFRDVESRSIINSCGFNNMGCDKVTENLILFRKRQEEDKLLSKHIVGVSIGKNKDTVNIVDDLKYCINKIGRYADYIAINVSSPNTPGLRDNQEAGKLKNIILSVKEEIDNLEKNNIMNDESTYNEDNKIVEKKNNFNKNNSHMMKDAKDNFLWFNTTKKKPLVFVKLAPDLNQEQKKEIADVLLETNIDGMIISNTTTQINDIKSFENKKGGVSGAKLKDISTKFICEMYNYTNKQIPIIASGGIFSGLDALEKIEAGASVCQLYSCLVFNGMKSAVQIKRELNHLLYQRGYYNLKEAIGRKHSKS
Assay: DHODH Inhibition Assay
Conditions: pH 8; 20 °C
Description: The assays were carried out by using a colorimetric DCIP method, which uses the colorimetric reagent 2, 6-dichlorophenolindophenol as the final electron acceptor. DCIP reduction is stoichiometrically equivalent to oxidation of dihydroorotate. Changes in absorbance were quantified on a plate reader and data were analyzed to measure the reduction of DCIP as a decrease in absorbance at 600 nm.

| Structure (SMILES) | IC50 [µM] |
| --- | --- |
| Cc1cc(Nc2ccc(C(N)=O)cc2)n2ncnc2n1 [4-({5-methyl-[1,2,4]triazolo[1,5-a]pyrimidin-7-yl}amino)benzamide] | > 200 |
| Cc1cc(Nc2ccccc2)n2ncnc2n1 [JMC521864 Compund DSM12] | > 100 |
